This passage reports inhibition and IC50 results from ChEMBL document CHEMBL5696442, “Discovery of type II inhibitors of TGFβ-activated kinase 1 (TAK1) and mitogen-activated protein kinase kinase kinase kinase 2 (MAP4K2)” (J Med Chem, 2015).

Assay [1] has as its target Mitogen-activated protein kinase kinase kinase kinase 4 (Homo sapiens, UniProt O95819). The experiment in a line: Inhibition of ZC1/HGK Lys2 labeling site in human A-375 cells at 0.5 uM by KiNativ Profiling analysis relative to control. Type of assay: cell-based.
Assay [2] concerns the target Serine/threonine-protein kinase 32C (Homo sapiens) (UniProt Q86UX6). The assay is described as follows: Inhibition of YANK3 Lys2 labeling site in human A-375 cells at 5 uM by KiNativ Profiling analysis relative to control. Type of assay: cell-based.
For assay [3], the target named is Serine/threonine-protein kinase WNK1 (Homo sapiens) (UniProt Q9H4A3). The assay is described as follows: Inhibition of Wnk1 ACT labeling site in human A-375 cells at 0.05 uM by KiNativ Profiling analysis relative to control. In kind it is cell-based.
Assay [4] concerns the target 5'-AMP-activated protein kinase catalytic subunit alpha-1 (Homo sapiens) (UniProt Q13131). The experiment in a line: Inhibition of AMPKa1 ATP Loop labeling site in human A-375 cells at 0.05 uM by KiNativ Profiling analysis relative to control. In kind it is cell-based.
In assay [5] the target is Ephrin type-A receptor 2 (Homo sapiens, UniProt P29317). The experiment in a line: Inhibition of EphA2 (unknown origin) ACT labeling site by KiNativ Profiling analysis.
Assay [6] deals with RAF proto-oncogene serine/threonine-protein kinase (Homo sapiens, UniProt P04049). The assay is described as follows: Inhibition of RAF1 Lys2 labeling site in human A-375 cells at 0.5 uM by KiNativ Profiling analysis relative to control. In kind it is cell-based.
Assay [7] deals with T1, Serine/threonine-protein kinase Nek9 (Homo sapiens) (UniProt Q8TD19).
T1 sequence (whole entry): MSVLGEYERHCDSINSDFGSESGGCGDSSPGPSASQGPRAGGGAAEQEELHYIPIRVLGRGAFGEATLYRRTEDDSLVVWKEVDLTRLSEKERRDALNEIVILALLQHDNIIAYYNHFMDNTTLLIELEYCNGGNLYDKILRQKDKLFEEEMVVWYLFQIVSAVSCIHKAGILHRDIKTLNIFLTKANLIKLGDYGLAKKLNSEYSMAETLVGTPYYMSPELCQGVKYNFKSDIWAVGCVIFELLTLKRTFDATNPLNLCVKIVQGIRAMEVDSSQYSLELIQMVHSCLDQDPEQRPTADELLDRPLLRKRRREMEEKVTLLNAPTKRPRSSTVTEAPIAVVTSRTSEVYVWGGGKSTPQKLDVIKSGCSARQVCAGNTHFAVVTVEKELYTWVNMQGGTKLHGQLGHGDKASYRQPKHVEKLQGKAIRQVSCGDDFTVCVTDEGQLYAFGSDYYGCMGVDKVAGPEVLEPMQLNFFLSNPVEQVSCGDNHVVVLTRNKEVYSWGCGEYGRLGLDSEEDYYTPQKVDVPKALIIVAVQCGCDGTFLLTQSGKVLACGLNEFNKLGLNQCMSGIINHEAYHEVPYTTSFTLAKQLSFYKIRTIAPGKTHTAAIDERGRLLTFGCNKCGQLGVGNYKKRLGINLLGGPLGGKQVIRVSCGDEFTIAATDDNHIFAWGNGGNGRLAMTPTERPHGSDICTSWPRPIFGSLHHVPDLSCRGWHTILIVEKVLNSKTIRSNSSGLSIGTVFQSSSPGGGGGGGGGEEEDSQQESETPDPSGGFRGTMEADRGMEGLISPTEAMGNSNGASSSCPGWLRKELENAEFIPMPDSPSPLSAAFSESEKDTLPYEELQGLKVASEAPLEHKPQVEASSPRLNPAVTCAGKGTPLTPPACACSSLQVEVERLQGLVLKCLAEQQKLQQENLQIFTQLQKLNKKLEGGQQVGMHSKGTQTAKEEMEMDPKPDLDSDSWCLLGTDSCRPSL
The experiment in a line: Inhibition of NEK9 Lys2 labeling site in human A-375 cells at 5 uM by KiNativ Profiling analysis relative to control. Type of assay: cell-based.

Assay [8] has as its target Tyrosine-protein kinase Fyn (Homo sapiens) (UniProt P06241). The experiment in a line: Inhibition of FYN ACT labeling site in human A-375 cells at 0.5 uM by KiNativ Profiling analysis relative to control. In kind it is cell-based.
For assay [9], the target named is Cyclin-dependent kinase 17 (Homo sapiens) (UniProt Q00537). The experiment in a line: Inhibition of PCTAIRE2 Lys1 labeling site harbouring SKLTENLVALKEIRLEHEEGAPCTAIR in human A-375 cells at 0.5 uM by KiNativ Profiling analysis relative to control. Type of assay: cell-based.
The target in assay [10] is T2, Mitogen-activated protein kinase kinase kinase 3 (Homo sapiens) (UniProt Q99759).
T2 sequence (whole entry): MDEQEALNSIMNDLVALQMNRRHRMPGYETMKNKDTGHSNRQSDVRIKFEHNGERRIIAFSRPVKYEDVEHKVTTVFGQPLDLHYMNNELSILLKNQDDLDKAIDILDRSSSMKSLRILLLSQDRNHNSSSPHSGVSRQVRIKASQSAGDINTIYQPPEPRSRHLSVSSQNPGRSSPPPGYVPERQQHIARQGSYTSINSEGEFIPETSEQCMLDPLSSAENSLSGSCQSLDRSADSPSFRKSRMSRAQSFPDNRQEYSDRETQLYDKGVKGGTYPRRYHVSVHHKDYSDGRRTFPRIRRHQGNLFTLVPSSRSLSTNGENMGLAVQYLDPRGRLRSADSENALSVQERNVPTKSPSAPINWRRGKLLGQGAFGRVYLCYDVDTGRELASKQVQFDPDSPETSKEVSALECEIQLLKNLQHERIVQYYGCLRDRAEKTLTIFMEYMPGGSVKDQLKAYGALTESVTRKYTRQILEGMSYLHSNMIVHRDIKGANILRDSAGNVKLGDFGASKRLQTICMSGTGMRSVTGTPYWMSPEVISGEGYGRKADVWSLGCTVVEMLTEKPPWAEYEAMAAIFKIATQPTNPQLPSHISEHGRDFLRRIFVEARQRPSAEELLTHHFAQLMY
The assay is described as follows: Inhibition of MAP3K3 Lys1 labeling site in human A-375 cells at 0.05 uM by KiNativ Profiling analysis relative to control. In kind it is cell-based.

Molecules are shown by their SMILES.

Chain of Serine/threonine-protein kinase WNK1 (Homo sapiens) (Q9H4A3 whole entry, looked up): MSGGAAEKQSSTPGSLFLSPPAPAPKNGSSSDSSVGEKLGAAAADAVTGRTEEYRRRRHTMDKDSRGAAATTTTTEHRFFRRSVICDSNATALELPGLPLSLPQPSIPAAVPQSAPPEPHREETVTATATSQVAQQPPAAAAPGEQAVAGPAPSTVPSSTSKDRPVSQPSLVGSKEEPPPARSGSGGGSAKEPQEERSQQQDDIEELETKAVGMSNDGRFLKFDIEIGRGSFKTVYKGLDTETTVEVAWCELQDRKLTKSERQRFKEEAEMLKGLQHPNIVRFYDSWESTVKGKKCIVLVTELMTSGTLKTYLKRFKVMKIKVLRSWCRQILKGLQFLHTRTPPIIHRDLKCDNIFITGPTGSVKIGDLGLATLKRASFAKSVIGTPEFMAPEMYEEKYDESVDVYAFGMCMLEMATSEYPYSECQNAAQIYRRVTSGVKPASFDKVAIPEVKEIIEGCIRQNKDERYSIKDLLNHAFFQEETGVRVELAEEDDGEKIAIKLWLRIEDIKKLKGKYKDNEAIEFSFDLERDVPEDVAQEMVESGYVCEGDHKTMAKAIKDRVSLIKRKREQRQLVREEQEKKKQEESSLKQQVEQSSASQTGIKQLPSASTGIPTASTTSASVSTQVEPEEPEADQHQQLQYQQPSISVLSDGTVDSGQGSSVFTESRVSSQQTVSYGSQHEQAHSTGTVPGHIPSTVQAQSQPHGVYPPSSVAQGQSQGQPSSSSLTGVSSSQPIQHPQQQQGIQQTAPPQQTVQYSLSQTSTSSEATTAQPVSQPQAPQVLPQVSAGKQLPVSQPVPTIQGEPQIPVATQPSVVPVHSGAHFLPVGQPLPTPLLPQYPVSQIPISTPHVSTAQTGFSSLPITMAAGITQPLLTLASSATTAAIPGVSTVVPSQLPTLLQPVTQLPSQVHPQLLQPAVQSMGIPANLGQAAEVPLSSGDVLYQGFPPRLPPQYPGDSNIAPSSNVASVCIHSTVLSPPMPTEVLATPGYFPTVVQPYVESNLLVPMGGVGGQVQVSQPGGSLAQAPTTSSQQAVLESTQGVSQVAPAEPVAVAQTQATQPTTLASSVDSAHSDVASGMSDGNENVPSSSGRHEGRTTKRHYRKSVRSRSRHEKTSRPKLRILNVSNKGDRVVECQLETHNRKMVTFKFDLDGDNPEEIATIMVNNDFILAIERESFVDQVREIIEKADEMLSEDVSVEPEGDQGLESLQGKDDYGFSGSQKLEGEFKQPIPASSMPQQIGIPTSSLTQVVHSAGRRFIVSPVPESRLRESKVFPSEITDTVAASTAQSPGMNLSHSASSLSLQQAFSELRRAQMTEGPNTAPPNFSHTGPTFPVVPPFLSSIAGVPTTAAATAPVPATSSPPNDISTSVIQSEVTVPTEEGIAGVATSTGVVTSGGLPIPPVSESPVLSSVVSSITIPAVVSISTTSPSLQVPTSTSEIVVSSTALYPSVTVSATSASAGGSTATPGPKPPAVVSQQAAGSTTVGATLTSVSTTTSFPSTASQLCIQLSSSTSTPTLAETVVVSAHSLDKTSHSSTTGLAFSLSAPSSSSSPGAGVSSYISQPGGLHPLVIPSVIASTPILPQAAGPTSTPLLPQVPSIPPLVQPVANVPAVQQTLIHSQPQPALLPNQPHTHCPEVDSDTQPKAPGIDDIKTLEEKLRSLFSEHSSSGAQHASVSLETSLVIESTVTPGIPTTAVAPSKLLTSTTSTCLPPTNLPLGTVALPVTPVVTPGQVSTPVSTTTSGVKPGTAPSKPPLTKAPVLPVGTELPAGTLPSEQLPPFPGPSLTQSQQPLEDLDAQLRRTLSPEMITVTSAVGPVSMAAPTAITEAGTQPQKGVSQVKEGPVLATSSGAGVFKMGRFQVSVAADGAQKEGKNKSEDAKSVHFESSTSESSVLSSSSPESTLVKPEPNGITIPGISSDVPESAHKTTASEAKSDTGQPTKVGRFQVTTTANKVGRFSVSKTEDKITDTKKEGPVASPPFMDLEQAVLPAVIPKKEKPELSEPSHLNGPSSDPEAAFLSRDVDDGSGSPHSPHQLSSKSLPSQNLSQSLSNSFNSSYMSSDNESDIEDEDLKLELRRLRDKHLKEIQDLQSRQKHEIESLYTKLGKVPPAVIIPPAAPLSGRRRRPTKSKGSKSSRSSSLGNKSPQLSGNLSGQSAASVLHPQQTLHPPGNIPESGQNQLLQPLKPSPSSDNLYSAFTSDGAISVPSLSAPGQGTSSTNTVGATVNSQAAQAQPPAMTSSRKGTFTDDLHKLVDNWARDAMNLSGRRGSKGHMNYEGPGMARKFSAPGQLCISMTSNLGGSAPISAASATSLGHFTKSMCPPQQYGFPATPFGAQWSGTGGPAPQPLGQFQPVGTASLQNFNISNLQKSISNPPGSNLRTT
Chain of 5'-AMP-activated protein kinase catalytic subunit alpha-1 (Homo sapiens) (Q13131 whole entry, looked up): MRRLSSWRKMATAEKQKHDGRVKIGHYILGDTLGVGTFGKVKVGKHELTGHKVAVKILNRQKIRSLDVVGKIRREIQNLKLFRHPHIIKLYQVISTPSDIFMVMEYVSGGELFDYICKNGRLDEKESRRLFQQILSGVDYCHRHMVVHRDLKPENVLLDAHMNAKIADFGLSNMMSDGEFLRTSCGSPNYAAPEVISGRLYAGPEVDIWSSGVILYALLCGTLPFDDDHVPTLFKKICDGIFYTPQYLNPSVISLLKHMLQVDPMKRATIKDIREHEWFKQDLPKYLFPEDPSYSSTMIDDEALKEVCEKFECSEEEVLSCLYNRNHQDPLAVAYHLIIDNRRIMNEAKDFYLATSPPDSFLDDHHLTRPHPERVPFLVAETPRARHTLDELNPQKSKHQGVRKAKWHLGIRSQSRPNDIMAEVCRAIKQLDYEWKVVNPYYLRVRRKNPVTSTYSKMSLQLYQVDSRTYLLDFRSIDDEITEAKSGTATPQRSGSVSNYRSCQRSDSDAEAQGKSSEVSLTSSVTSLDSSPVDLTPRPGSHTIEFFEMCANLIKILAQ
Chain of Tyrosine-protein kinase Fyn (Homo sapiens) (P06241 2-537 limits assumed): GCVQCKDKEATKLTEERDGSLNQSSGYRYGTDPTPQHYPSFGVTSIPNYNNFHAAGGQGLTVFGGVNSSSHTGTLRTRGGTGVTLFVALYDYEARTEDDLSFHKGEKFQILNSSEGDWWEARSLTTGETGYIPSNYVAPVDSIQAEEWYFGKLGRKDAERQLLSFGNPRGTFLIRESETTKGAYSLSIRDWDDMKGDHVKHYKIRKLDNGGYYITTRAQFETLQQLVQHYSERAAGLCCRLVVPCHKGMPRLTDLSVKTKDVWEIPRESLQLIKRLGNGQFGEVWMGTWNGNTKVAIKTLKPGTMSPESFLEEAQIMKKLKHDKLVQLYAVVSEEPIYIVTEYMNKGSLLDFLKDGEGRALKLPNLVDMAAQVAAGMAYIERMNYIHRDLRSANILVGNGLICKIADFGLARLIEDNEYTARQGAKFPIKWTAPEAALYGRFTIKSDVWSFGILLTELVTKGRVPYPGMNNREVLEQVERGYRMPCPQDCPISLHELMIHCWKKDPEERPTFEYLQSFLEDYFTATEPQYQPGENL
Chain of Cyclin-dependent kinase 17 (Homo sapiens) (Q00537 whole entry, looked up): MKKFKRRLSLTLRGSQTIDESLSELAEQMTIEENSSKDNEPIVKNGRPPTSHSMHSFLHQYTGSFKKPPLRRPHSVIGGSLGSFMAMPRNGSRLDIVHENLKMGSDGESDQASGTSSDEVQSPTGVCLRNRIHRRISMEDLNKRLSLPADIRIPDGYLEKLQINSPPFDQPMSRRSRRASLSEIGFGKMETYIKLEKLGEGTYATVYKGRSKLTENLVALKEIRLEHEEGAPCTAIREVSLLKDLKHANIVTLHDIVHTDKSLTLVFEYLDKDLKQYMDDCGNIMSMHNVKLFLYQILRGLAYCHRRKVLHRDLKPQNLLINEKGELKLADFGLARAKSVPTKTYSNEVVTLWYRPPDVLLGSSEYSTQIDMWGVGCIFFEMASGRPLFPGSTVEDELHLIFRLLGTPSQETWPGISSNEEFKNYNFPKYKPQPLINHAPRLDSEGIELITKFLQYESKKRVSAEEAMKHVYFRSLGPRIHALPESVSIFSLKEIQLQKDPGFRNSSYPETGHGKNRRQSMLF
Chain of Serine/threonine-protein kinase 32C (Homo sapiens) (Q86UX6 whole entry): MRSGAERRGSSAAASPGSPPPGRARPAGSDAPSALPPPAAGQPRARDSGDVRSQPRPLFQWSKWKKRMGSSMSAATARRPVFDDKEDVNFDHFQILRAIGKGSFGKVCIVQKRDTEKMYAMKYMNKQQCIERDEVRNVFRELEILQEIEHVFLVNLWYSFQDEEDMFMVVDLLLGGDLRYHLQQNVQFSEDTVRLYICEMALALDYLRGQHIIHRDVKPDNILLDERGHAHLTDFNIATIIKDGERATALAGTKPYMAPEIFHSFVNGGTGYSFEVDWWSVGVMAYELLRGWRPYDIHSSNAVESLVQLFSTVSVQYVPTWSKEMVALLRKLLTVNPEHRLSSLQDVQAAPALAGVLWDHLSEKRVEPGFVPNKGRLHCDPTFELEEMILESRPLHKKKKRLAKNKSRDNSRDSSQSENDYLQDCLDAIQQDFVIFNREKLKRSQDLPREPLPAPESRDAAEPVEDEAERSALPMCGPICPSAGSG

Regarding `CCN1CCN(Cc2ccc(NC(=O)c3ccc(C)c(/C=C/c4cnc5[nH]ccc5c4OC)c3)cc2C(F)(F)F)CC1`, the inhibition (as a rule, the drop in the measured response relative to a control, in per cent) in [1] was 48.1%; in assay [2], 12.7%; in assay [3] it was 10.1%; in [4], -8.8%; in assay [6], 82.6%; in assay [7], 14.7%. In addition, the inhibition turned out to be 72.6% in assay [8], 2.4% in assay [9] and 31% in assay [10]. For the same compound, inhibition in [5] was half-maximal at 77 nM (IC50).

For the compound `CCN1CCN(Cc2ccc(NC(=O)c3ccc(C)c(Oc4ccnc5[nH]ccc45)c3)cc2C(F)(F)F)CC1`, the inhibition in assay [1] was 70.8%; in assay [2], 16.2%; in [3], 10.3%; in [4] it was -4.4%; in assay [6] it was 79.2%; in [7] it was 3.2%. Besides, the inhibition worked out at 36.5% in [8], 6.9% in assay [9] and 16.7% in [10]. Moreover, in assay [5], 773 nM corresponded to half-maximal inhibition (IC50).
